Results reported in patent US10513533B2, “Tunicamycin related compounds with anti-bacterial activity” (priority 2017, dated 2019).
Entries after “also recorded” stand apart in the source; their conditions may differ.

Legend:
Bacillus subtilis = assay: agar diffusion-zone of inhibition assay; assay type: cell-based; settings: for Zone of Clearing (cm) B. subtilis: Example 1, 0.5 μg spotted
Saccharomyces cerevisiae = assay: agar diffusion-zone of inhibition assay; assay type: cell-based; settings: for Zone of Clearing (cm) Yeast: Example 1, 0.5 μg spotted
B. subtilis strain MW10 = assay: beta-lactam enhancement, broth dilution MIC with resazurin; settings: for MIC of the beta-lactam without any tunicamycins or tunicamycin related compounds added: beta-lactam alone
[1] = system: AtchitIV5 N-glycosylation; assay: Pichia-based protein N-glycosylation assay (SDS-PAGE); assay type: cell-based; settings: Example 2, 20 μg/mL, added at methanol induction
[2] = system: cell wall teichoic acid (WTA) pathway; settings: background, literature; cited from earlier work
[3] = system: Chinese hamster ovary (CHO) cells; assay: cytotoxicity against mammalian cell line in culture; assay type: cell-based; settings: FIG. 8A, 0.5 μg, 1.0 μg, 2.0 μg
From the text: Chinese hamster ovary (CHO) cells are chosen for this experiment because they have been used previously as a model for tunicamycin toxicity. See, e.g., Scocca and Krag, J. Biol. Chem., 265:20621-20626 (1990). A human cell line (MDA-MB-231 triple negative human breast cancer cells) are also used because their known susceptibility to tunicamycin. See, Banerjee, et al., Cancer Res. 71:2095 (2011). The protocols used are described in Duksin & Bornstein, Proc. Natl. Acad. Sci. (U.S.A.), 74:3433-3437 (1977).

Compound | Zone of Clearing (cm) B. subtilis (Bacillus subtilis) [cm] | Zone of Clearing (cm) Yeast (Saccharomyces cerevisiae) [cm] | antimicrobial activity on Bacillus (in words) (Bacillus subtilis) | toxicity / antimicrobial activity on S. cerevisiae (in words) (Saccharomyces cerevisiae) | also measured
CC(=O)NC1C(O)[C@H](O)C(CO)O[C@@H]1OC1O[C@H](C[C@@H](O)C2O[C@@H](n3ccc(=O)[nH]c3=O)[C@H](O)[C@@H]2O)C(O)C(O)[C@H]1N (some centres unmarked) [Compound 1] | 0 | 0 | – | – | –
CC1(C)S[C@@H]2[C@H](NC(=O)Cc3ccccc3)C(=O)N2[C@H]1C(=O)O [penicillin G] | – | – | – | – | MIC of the beta-lactam without any tunicamycins or tunicamycin related compounds added (B. subtilis strain MW10): 0.025 µg/mL
Cc1onc(-c2ccccc2)c1C(=O)N[C@@H]1C(=O)N2[C@@H]1SC(C)(C)[C@@H]2C(=O)O [oxacillin] | – | – | – | – | MIC (B. subtilis strain MW10; Bacillus subtilis, MW10, read-out: MIC of oxacillin only): 0.125 µg/mL; MIC of the beta-lactam without any tunicamycins or tunicamycin related compounds added (B. subtilis strain MW10): 0.25 µg/mL
COc1cccc(OC)c1C(=O)N[C@@H]1C(=O)N2[C@@H]1SC(C)(C)[C@@H]2C(=O)O [methicillin] | – | – | – | – | MIC of the beta-lactam without any tunicamycins or tunicamycin related compounds added (B. subtilis strain MW10): 0.125 µg/mL
COc1ccc(O[C@@H]2OC([C@H](O)C[C@H]3O[C@@H](O[C@H]4O[C@@H](CO)[C@@H](O)C(O)C4NC(C)=O)[C@H](NC(=O)/C=C/CCCCCCCCCC(C)C)C(O)C3O)[C@@H](O)[C@H]2O)cc1 (some centres unmarked) [Compound 7] | 0 | 0 | no antimicrobial biological activity | no antimicrobial biological activity | –
COc1ccc(O[C@@H]2OC([C@H](O)C[C@H]3OC(O[C@H]4OC(CO)[C@@H](O)C(O)C4NC(C)=O)[C@H](N)C(O)C3O)[C@@H](O)[C@H]2O)cc1 (some centres unmarked) [Compound 6] | 0 | 0 | no antimicrobial biological activity | no antimicrobial biological activity | –
CC(=O)NC1C(O)[C@H](O)[C@H](CO)O[C@@H]1O[C@@H]1O[C@H](C[C@@H](O)C2O[C@@H](n3cnc4c(N)ncnc43)[C@H](O)[C@@H]2O)C(O)C(O)[C@H]1NC(=O)/C=C/CCCCCCCCCC(C)C (some centres unmarked) [Compound 10] | 0 | 0 | no antimicrobial biological activity | no antimicrobial biological activity | –
[N-]=[N+]=NC1C(O)[C@H](O)C(CO)O[C@@H]1OC1O[C@H](C[C@@H](O)C2O[C@@H](n3ccc(=O)[nH]c3=O)[C@H](O)[C@@H]2O)C(O)C(O)[C@H]1N1C(=O)c2ccccc2C1=O (some centres unmarked) [Compound 5] | 0 | 0 | – | – | –
CC(=O)NC1C(O)[C@H](O)C(CO)O[C@@H]1OC1O[C@H](C[C@@H](O)C2O[C@@H](n3ccc(=O)[nH]c3=O)[C@H](O)[C@@H]2O)C(O)C(O)[C@H]1NC(C)=O (some centres unmarked) [Compound 9] | 0 | 0 | – | – | –
CC(=O)NC1C(O)[C@H](O)[C@H](CO)O[C@@H]1O[C@@H]1O[C@H](C[C@@H](O)C2O[C@@H](n3ccc(=O)[nH]c3=O)[C@H](O)[C@@H]2O)C(O)C(O)[C@H]1NC(=O)/C=C/CCCCCCCCCC(C)C (some centres unmarked) [Compound 2] | 2.5 | 2.4 | same antimicrobial activity as the native tunicamycin | same antimicrobial activity as the native tunicamycin | inhibition of AtchitIV5 N-glycosylation (in words) [1]: same effect as the naturally occurring tunicamycins
CC(C)CCCCCCCCC/C=C/C(=O)N[C@@H]1C(O)C(O)[C@@H](C[C@@H](O)C2O[C@@H](n3ccc(=O)[nH]c3=O)[C@H](O)[C@@H]2O)O[C@H]1O[C@H]1O[C@@H](CO)[C@@H](O)C(O)C1N=[N+]=[N-] (some centres unmarked) [Compound 4] | 1.6 | 0 | almost equivalent to the native tunicamycin | essentially non-toxic; also recorded: reduced toxicity | –
C[C@H]1[C@@H](c2cc(C(F)(F)F)cc(C(F)(F)F)c2)OC(=O)N1C(=O)CCc1cncc2ccccc12 [tarocin A1] | – | – | – | – | depletion of the cell wall teichoic acid polymer (in words) [2]: complete depletion
quinovosamycin | – | – | – | – | toxicity to CHO cells (in words) [3]: toxic
CC(=O)NC1C(O)[C@H](O)[C@H](CO)O[C@@H]1O[C@@H]1O[C@H](C[C@@H](O)C2O[C@@H](n3ccc(=O)[nH]c3=O)[C@H](O)[C@@H]2O)C(O)C(O)[C@H]1NC(=O)CCCCCCCCCCCC(C)C (some centres unmarked) [Compound 3] | 2.3 | 0.2 | comparable response | considerably less toxic; also recorded: reduced toxicity | inhibition of AtchitIV5 N-glycosylation (in words) [1]: less effective inhibitor
